The assay has as its target T1, human APJ receptor (Homo sapiens, UniProt P35414).
T1 construct: expressed in transfected cells
T1 sequence (P35414 1-380): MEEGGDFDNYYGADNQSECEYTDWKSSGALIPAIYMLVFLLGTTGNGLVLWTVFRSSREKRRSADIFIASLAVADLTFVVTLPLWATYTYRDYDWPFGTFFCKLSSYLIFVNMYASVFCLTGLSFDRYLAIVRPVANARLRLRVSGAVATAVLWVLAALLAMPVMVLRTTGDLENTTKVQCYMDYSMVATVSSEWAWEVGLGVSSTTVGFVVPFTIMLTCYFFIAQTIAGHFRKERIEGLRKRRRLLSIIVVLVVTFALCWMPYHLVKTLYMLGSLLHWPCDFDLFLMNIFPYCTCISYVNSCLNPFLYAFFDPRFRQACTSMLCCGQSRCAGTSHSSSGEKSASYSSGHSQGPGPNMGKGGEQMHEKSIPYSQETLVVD
The assay can be described thus: Intracellular cAMP accumulation assay (APJ hcAMP, HTRF). It counts as cell-based. The method, boiled down:
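HEK293 cells stably expressing human APJ, 5,000/well, incubated 30 min at room temperature with compound plus […] and 2 μM forskolin. cAMP read by HTRF against a cAMP standard curve; EC50 from variable-slope sigmoidal fit, Ymax as % of (Pyr1)apelin-13 inhibition.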
For orientation: Cyclic AMP is a second messenger, typically raised through Gs and lowered through Gi signalling.

Setting [1] is: Table 1, HEK293 cells stably expressing human APJ receptor, inhibition of forskolin-mediated cAMP production, read-out: APJ hcAMP EC50.
The mark [2] stands for this setting: human APJ, cAMP, potency range class, read-out: APJ cAMP Human EC50.

pEC50: −log10 of the molar value. Where two headings read alike, the source gives them in different places. Some results are limits rather than exact numbers.

Take `CCCC(NC(=O)c1ccc(-c2c(Cl)cccc2-c2nc3ccccc3[nH]2)c(C(=O)O)c1)c1ccc(F)cc1OC` (single isomer, unassigned) [Example 165]: the pEC50 (commonly the EC50 on a negative log10 scale, so that one unit is a factor of ten) reads like this: under setting [1], above 8.00; under setting [2], above 8.00.

With `CCCC(NC(=O)c1ccc(-c2c(Cl)cccc2-c2nc3ccccc3[nH]2)c(C(=O)O)c1)c1ccc(Cl)cc1OC` (single isomer, unassigned) [Example 166], the pEC50 under setting [1] is above 8.00.

Regarding `CCCC(NC(=O)c1ccc(-c2c(Cl)cccc2-c2nc3ccccc3[nH]2)c(C(=O)O)c1)c1ccncc1` (single isomer, unassigned) [Example 168], the pEC50 was above 8.00 under setting [1] and above 8.00 under setting [2]. Consider `CCCC(NC(=O)c1ccc(-c2c(Cl)cccc2-c2nc3ccccc3[nH]2)c(C(=O)O)c1)c1ccccc1Cl` (single isomer, unassigned) [Example 169], for which the pEC50 under setting [1] was above 8.00 and the pEC50 under setting [2] was above 8.00. Consider `CCCC(NC(=O)c1ccc(-c2c(Cl)cccc2-c2nc3ccccc3[nH]2)c(C(=O)O)c1)c1cccc(F)c1` (single isomer, unassigned) [Example 171], for which the pEC50 runs as follows: under setting [1], above 8.00; under setting [2], above 8.00. `CCCC(NC(=O)c1ccc(-c2c(Cl)cccc2-c2nc3ccccc3[nH]2)c(C(=O)O)c1)C1CCCCCC1` (single isomer, unassigned) [Example 173]: the pEC50 is, setting by setting: under setting [1], above 8.00; under setting [2], above 8.00.

Turning to `CCCC(NC(=O)c1ccc(-c2c(Cl)cccc2-c2nc3ccccc3[nH]2)c(C(=O)O)c1)c1ccccn1` (single isomer, unassigned) [Example 175], the pEC50 is above 8.00 under setting [1] and above 8.00 under setting [2]. As to `CCC[C@H](NC(=O)c1ccc(-c2c(Cl)cccc2-c2nc3ccccc3[nH]2)c(C(=O)O)c1)c1ccccc1OC(F)(F)F` (single isomer, unassigned) [Example 176], the pEC50 under setting [1] is above 8.00 and the pEC50 under setting [2] was above 8.00. With `CCC[C@H](NC(=O)c1ccc(-c2c(Cl)cccc2-c2nc3ccccc3[nH]2)c(C(=O)O)c1)C1CCCCC1` (single isomer, unassigned) [Example 177], the pEC50 by setting is: under setting [1], above 8.00; under setting [2], above 8.00. As to `CCCC(NC(=O)c1ccc(-c2c(Cl)cccc2-c2nc3ccccc3[nH]2)c(C(=O)O)c1)c1c(F)cccc1OC` (single isomer, unassigned) [Example 178], the negative logarithm of the EC50 (pEC50) is above 8.00 under setting [1] and above 8.00 under setting [2].

Turning to `CCCC(NC(=O)c1ccc(-c2c(Cl)cccc2-c2nc3ccccc3[nH]2)c(C(=O)O)c1)c1ccc(Cl)cc1F` (single isomer, unassigned) [Example 182], the pEC50 runs as follows: under setting [1], above 8.00; under setting [2], above 8.00. Regarding `CCCC(NC(=O)c1ccc(-c2c(Cl)cccc2-c2nc3ccccc3[nH]2)c(C(=O)O)c1)C1CCCC1` (single isomer, unassigned) [Example 183], the pEC50 under setting [1] is above 8.00 and the pEC50 under setting [2] was above 8.00. Regarding `CCCC(NC(=O)c1ccc(-c2c(Cl)cccc2-c2nc3ccccc3[nH]2)c(C(=O)O)c1)c1ccc(Cl)cc1F` (single isomer, unassigned) [Example 184], the pEC50 under setting [1] is above 8.00. Turning to `CCC[C@H](NC(=O)c1ccc(-c2c(Cl)cccc2-c2nc3ccccc3[nH]2)c(C(=O)O)c1)c1cccc(Cl)c1` (single isomer, unassigned) [Example 185], the pEC50 reads like this: under setting [1], above 8.00; under setting [2], above 8.00. For the compound `CCCC(NC(=O)c1ccc(-c2c(Cl)cccc2-c2nc3ccccc3[nH]2)c(C(=O)O)c1)c1cncs1` (single isomer, unassigned) [Example 186], the pEC50 is, setting by setting: under setting [1], above 8.00; under setting [2], above 8.00.

With `CCCC(NC(=O)c1ccc(-c2c(Cl)cccc2-c2nc3ccccc3[nH]2)c(C(=O)O)c1)c1ccccc1C(F)(F)F` (single isomer, unassigned) [Example 189], the pEC50 under setting [1] was 7.00 to 8.00 and the pEC50 under setting [2] is 7.00 to 8.00.

The values above are taken from US11498903B2 (BRISTOL-MYERS SQUIBB COMPANY, priority 2017, dated 2022).
